Positions count from the first letter of the chain named. pIC50, pKd: −log10 of the molar value. Like-named read-outs stand apart in the source and are kept apart here.
Columns and labels:
MCT2-embigin [1] = biological target: T1, MCT2-embigin (Homo sapiens, UniProt O60669, Y34A); assay: bio-layer interferometry, SSA biosensor, […] fit; assay type: binding; conditions: pH 7.4, 25 °C
T1 construct: gene SLC16A7; fusion: embigin C-terminus joined by GGSG linker to MCT2 N-terminus, C-terminal twin-Strep tag; HEK-293F, DDM then GDN, heterodimer; in transport tests expressed as fusion in HEK-293T cells; with Embigin
T1 sequence (O60669 1-478 Y34A): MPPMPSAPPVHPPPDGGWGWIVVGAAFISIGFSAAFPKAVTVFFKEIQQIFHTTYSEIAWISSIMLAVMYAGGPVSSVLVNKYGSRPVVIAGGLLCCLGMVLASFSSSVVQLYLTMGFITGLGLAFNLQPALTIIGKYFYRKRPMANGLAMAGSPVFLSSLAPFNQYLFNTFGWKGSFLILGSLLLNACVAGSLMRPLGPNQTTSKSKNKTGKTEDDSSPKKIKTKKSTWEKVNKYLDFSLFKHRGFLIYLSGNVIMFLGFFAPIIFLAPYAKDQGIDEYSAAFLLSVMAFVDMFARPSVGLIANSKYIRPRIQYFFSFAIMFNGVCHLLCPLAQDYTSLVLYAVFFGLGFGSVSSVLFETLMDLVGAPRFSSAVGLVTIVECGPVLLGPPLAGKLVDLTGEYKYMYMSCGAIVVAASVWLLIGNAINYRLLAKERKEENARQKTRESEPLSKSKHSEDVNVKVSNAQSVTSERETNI
T1 sequence (Q6PCB8 33-327 partner): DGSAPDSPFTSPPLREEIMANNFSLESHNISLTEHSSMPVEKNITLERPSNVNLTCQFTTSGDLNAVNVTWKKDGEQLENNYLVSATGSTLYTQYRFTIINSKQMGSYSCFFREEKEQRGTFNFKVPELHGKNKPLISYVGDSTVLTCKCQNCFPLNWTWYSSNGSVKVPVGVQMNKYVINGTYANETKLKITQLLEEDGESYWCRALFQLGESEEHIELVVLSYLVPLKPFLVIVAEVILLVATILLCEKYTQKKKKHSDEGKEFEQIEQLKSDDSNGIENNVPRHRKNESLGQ

MCT2-embigin [2] = biological target: T2, MCT2-embigin (Homo sapiens, UniProt O60669, F262A); assay: bio-layer interferometry, SSA biosensor, […] fit; assay type: binding; conditions: pH 7.4, 25 °C
T2 construct: gene SLC16A7; fusion: embigin C-terminus joined by GGSG linker to MCT2 N-terminus, C-terminal twin-Strep tag; HEK-293F, DDM then GDN, heterodimer; in transport tests expressed as fusion in HEK-293T cells; with Embigin
T2 sequence (O60669 1-478 F262A): T1 sequence (O60669 1-478 Y34A) with A34Y, F262A
T2 sequence (Q6PCB8 33-327 partner): T1 sequence (Q6PCB8 33-327 partner)

MCT2-embigin [3] = biological target: T3, MCT2-embigin (Homo sapiens, UniProt O60669); assay: pyruvate uptake, pyronicSF fluorescence, transfected HEK-293T cells; assay type: cell-based
T3 construct: gene SLC16A7; fusion: embigin C-terminus joined by GGSG linker to MCT2 N-terminus, C-terminal twin-Strep tag; HEK-293F, DDM then GDN, heterodimer; in transport tests expressed as fusion in HEK-293T cells; with Embigin
T3 sequence (O60669 1-478): T1 sequence (O60669 1-478 Y34A) with A34Y
T3 sequence (Q6PCB8 33-327 partner): T1 sequence (Q6PCB8 33-327 partner)

MCT2-embigin [4] = biological target: T3, MCT2-embigin; assay: bio-layer interferometry, SSA biosensor, […] fit; assay type: binding; conditions: read-out: affinity (KD)
MCT1-Basigin-2 = system: T4, MCT1-Basigin-2; assay: pyruvate uptake, pyronicSF fluorescence, transfected HEK-293T cells; assay type: cell-based, Homo sapiens; conditions: 5 mM pyruvate; 30 min pre-incubation
T4 construct: gene SLC16A1; fusion MCT1-Basigin-2; expressed in HEK-293T cells with pyronicSF for transport; with Basigin

MCT2-embigin [5] = biological target: T2, MCT2-embigin; assay: bio-layer interferometry, SSA biosensor, […] fit; assay type: binding
MCT2-embigin [6] = biological target: T3, MCT2-embigin; assay: bio-layer interferometry, SSA biosensor, […] fit
MCT2-embigin [7] = biological target: T5, MCT2-embigin (Homo sapiens, UniProt O60669, F351A); assay: bio-layer interferometry, SSA biosensor, […] fit; assay type: binding
T5 construct: gene SLC16A7; fusion: embigin C-terminus joined by GGSG linker to MCT2 N-terminus, C-terminal twin-Strep tag; HEK-293F, DDM then GDN, heterodimer; in transport tests expressed as fusion in HEK-293T cells; with Embigin
T5 sequence (O60669 1-478 F351A): T1 sequence (O60669 1-478 Y34A) with A34Y, F351A
T5 sequence (Q6PCB8 33-327 partner): T1 sequence (Q6PCB8 33-327 partner)

MCT2-embigin [8] = biological target: T1, MCT2-embigin; assay: bio-layer interferometry, SSA biosensor, […] fit; assay type: binding

Row | KD (MCT2-embigin [2]) | pIC50 (MCT2-embigin [3]) | pKd (MCT2-embigin [4]) | pIC50 (MCT1-Basigin-2) | pKd (MCT2-embigin [5]) | pKd (MCT2-embigin [6]) | pKd (MCT2-embigin [7]) | pKd (MCT2-embigin [8]) | Compound | KD (MCT2-embigin [1])
1 | MCT2(F262A)-embigin (B) | 6.01 | 6.22 |  |  |  |  |  | Cc1n[nH]c(C)c1Cc1sc2c(c1C(=O)N1C[C@H](O)CO1)c(=O)n(C)c(=O)n2CC(C)C [AR-C155858] | The binding kinetics of AR-C155858 bound to MCT2(Y34A)-embigin (A)
2 |  | 5.57 |  | 5.59 | 4.48 | 6.22 | 3.68 | 4.86 | Cc1cc(Nc2ncnc3ccc(NC4=NC(C)(C)CO4)cc23)ccc1Oc1ccn2ncnc2c1 [Tucatinib] | 
3 |  |  |  | 5.91 |  |  |  |  | Cc1[nH]nc(C(F)(F)F)c1Cc1sc2c(c1C(=O)N1C[C@](C)(O)CO1)c(=O)n(C)c(=O)n2C(C)C [AZD3965] | 

From article PMC12894981, “Structure-guided screening identifies Tucatinib as dual inhibitor for MCT1/2” (EMBO Reports, 2025)
